According to patent publication US20240238316A1, “C[…]” (priority 2021, published 2024):

Assay: solvents tested for dissolving the acid and the cannabinoid
Type: physicochemical
Conditions: compared with other solvents, including other alcohols
Procedure: Various solvents are tested, including other alcohols.

CC(O)CO (stereo not shown) [Propylene glycol]
dissolution of the acid and the cannabinoid in the solvent: dissolve both the acid and the cannabinoid efficiently and without excessive heating
